Results from patent US20040176442A1, “Potassium taurate bicarbonate and ascorbate” (priority 2003, published 2004).
Where “and” joins values, the source holds several entries; their conditions need not be identical. Equal entries are not always repeated.

System: Dahl salt-sensitive rats
Assay: Systolic blood pressure of Dahl salt-sensitive rats on high salt diet, PTB in drinking water (tail-cuff plethysmography)
Format: in vivo, rat
Settings: for Average systolic blood pressure: 13.5 grams/liter PTB in drinking water
Experimental: An experimental study was undertaken to assess the effect on blood pressure of oral PTB given in drinking water to Dahl salt-sensitive rats, which are known to experience an increase in blood pressure upon administration of salt. In this study, salt was administered in the diet to two groups of rats, a placebo group that received salt but not PTB and an active group that received both salt and PTB in drinking water.
The study was conducted as follows: Twenty-four Dahl salt-sensitive male rats were fed regular rat chow containing 0.24% (w/w) sodium chloride for an acclimatization period. The rats were then switched to a high salt diet (4% NaCl and 1.5% KCl) and were randomly divided into two groups of twelve rats each—an active group supplied with drinking water containing 13.5 grams/liter PTB (prepared as described in Example 2, and a placebo group receiving ordinary drinking water. Food and water were available ad libitum to both groups over the 28-day course of the study. The systolic blood pressure of each rat was determined twice a week over the course of the study by the tail-cuff plethysmography method. Each recorded blood pressure was the average of 3-5 individual readings.
Systolic blood pressure rose progressively after high-salt intake in the placebo group, reaching 172±4 mm Hg at day 28.

`NCCS(=O)(=O)O.O=C([O-])O.[K+]` [PTB, potassium taurate bicarbonate] was tested, and the “Blunting of the expected rise in systolic blood pressure (active vs placebo group)” value (by the end of the 28-day study, PTB in drinking water, high salt diet) was 21 mm Hg, the “Average systolic blood pressure” value (day 3 after administration, high salt diet (4% NaCl and 1.5% KCl)) was 114 mm Hg and the “Average systolic blood pressure” value (day 7 after administration, high salt diet) was 126 mm Hg. The “Average systolic blood pressure” value (day 10 after administration, high salt diet) was 133 mm Hg, the “Average systolic blood pressure” value (day 14 after administration, high salt diet) was 134 mm Hg and the “Average systolic blood pressure” value (day 17 after administration, high salt diet) was 138±2 mm Hg and 138 mm Hg. For the same compound, the “Average systolic blood pressure” value (day 21 after administration, high salt diet) was 150 mm Hg, the “Average systolic blood pressure” value (day 24 after administration, high salt diet) was 143±3 mm Hg and 143 mm Hg and the “Average systolic blood pressure” value (day 28 after administration, high salt diet) was 151±3 mm Hg and 151 mm Hg.
